Three molecules from paper PMC8360069, “Prediction and Validation of a Druggable Site on Virulence Factor of Drug Resistant Burkholderia cenocepacia” (Chemistry (Weinheim an Der Bergstrasse, Germany), 2021) can be followed below.

Common to all, as to assay type: binding
Assay [1] addresses T1, BC2L-C (Burkholderia cenocepacia, UniProt B4EH86).
T1 construct: gene BCAM0185; N-terminal domain (BC2L-C-nt)
In words: ITC; X-ray crystal structure ([…] Å, with Globo H); STD-NMR. In general terms: Isothermal titration calorimetry measures the heat released or taken up as one component is titrated into another.

In assay [2] the target is T1, BC2L-C. In words: STD-NMR in the presence of Me-α-L-Fuc (no density in soaked crystals).
Assay [3] addresses T1, BC2L-C. Put plainly: STD-NMR; thermal shift assay (about +[…] °C).

T1 sequence (B4EH86 entry or part of it): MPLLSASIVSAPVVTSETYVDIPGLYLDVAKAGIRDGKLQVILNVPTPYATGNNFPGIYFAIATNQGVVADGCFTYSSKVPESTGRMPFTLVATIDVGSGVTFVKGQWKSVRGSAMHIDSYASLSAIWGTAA

With `Cc1nccn1-c1cccc(CN)c1` [KL3, 3‐(2‐Methyl‐1H‐imidazol‐1‐yl) benzylamine], at BC2L-C [1], the Kd was 877 µM. With `NC(CO)Cc1ccccc1` (stereo not drawn) [KL9], the “STD-NMR in the presence of Me-α-L-Fuc (no density in soaked crystals)” value at BC2L-C [2] is “confirming the binding event for the three fragments in the BC2L‐C‐nt/fucose complex”. For the molecule `CO[C@@H]1O[C@@H](C)[C@@H](O)[C@@H](O)[C@@H]1O` [Methyl α-L-fucoside], the “STD-NMR; thermal shift assay (about +2 °C)” value on BC2L-C [3] was “Me‐α‐L‐Fuc was initially tested alone in the experiment, verifying that it binds BC2L‐C‐nt”.

For orientation: Kd means the concentration at which binding is half-saturated. Low values mean a tighter complex, high ones a looser complex.
